What was measured:
[1] = molecular target: T1, human B1R receptor (CHO K1 cells stably transfected with the human B1R gene) (Homo sapiens, UniProt P46663); test: Functional study on the bradykinin receptor 1 (B1R), Ca2+ fluorescence (Fluo-4) FLIPR/Novostar assay, hB1R cells; type: cell-based; details: CHO-K1, read-out: % inhibition (human B1R) at 10 μM
T1 construct: expressed in transfected cells; host or cells: CHO K1 cells (Chinese hamster ovary), stably transfected
T1 sequence (P46663 1-353): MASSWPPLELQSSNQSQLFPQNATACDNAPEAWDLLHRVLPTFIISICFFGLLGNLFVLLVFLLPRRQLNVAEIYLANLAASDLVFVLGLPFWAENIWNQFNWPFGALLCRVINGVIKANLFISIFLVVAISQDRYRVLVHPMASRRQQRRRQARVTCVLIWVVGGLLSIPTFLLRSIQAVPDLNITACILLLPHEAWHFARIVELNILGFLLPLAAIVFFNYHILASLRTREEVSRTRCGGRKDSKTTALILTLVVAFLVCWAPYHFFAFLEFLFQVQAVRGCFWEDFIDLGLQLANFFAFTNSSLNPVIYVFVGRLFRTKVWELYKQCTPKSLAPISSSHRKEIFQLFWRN
Outline: (§1)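 Ca2+ influx (Fluo-4, peak fluorescence, λex 488/λem 540 nm) was measured in CHO K1 lines expressing rat or human B1R. After a 10 μM test-compound pre-addition scoring % activation, cells received EC80 agonist: Des-Arg9-bradykinin for rat, Lys-Des-Arg9-bradykinin for human. Antagonism was expressed as % of maximum inhibition, with IC50 from varied concentrations.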

[2] = molecular target: T2, B1R receptor of the rat (CHO K1 cells stably transfected with the B1R gene of the rat) (Rattus norvegicus, UniProt P97583); test: Functional study on the bradykinin receptor 1 (B1R), Ca2+ fluorescence (Fluo-4) FLIPR/Novostar assay, rB1R cells; type: cell-based; details: CHO-K1, 10 μM, read-out: % inhibition (rat B1R) at 10 μM
T2 construct: expressed in transfected cells; host or cells: CHO K1 cells (Chinese hamster ovary), stably transfected
T2 sequence (P97583 1-337): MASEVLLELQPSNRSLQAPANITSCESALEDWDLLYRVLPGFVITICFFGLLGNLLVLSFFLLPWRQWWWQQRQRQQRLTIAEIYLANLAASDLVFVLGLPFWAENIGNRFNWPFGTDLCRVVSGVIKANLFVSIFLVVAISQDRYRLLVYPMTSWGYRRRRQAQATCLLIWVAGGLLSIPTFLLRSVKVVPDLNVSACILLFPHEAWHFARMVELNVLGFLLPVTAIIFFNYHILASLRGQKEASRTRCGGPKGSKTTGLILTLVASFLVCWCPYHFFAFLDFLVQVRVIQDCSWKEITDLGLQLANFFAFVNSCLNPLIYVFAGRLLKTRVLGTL
Outline: as §1

inhibition at 10 µM [1] [%]	inhibition at 10 µM [2] [%]	Structure (SMILES)
100	102	CN(C(=O)c1ccc2c(c1)[C@H](NC(=O)c1ccccc1C(C)(C)C)CC2)C1CCN(c2ccncc2)CC1 [Example H-67, (3R)-3-[(2-tert-Butyl-benzoyl)amino]-N-methyl-N-(1-pyridin-4-yl-piperidin-4-yl)-2,3-dihydro-1H-indene-5-carboxylic acid amide]
100	104	CC(C)CS(=O)(=O)N[C@@H]1CCc2ccc(C(=O)N(C)C3CCN(c4ccncc4)CC3)cc21 [Example H-68, (3R)-N-Methyl-3-[(2-methyl-propylsulfonyl)amino]-N-(1-pyridin-4-yl-piperidin-4-yl)-2,3-dihydro-1H-indene-5-carboxylic acid amide]
100	99	CN(C(=O)c1ccc2c(c1)[C@H](NC(=O)[C@H]1CCCc3ccccc31)CC2)C1CCN(c2ccncc2)CC1 [Example H-69, (1S)-N-[(1R)-6-[Methyl-(1-pyridin-4-yl-piperidin-4-yl)-carbamoyl]-2,3-dihydro-1H-inden-1-yl]-1,2,3,4-tetrahydro-naphthalene-1-carboxylic acid amide]
100	96	CN(C(=O)c1ccc2c(c1)[C@H](NC(=O)[C@@H]1CCCc3ccccc31)CC2)C1CCN(c2ccncc2)CC1 [Example H-70, N-[(1R)-6-[Methyl-(1-pyridin-4-yl-piperidin-4-yl)-carbamoyl]-2,3-dihydro-1H-inden-1-yl]-1,2,3,4-tetrahydro-naphthalene-1-carboxylic acid amide]
100	99	CN(C(=O)c1ccc2c(c1)[C@H](NC(=O)c1ccccc1)CC2)C1CCN(c2ccncc2)CC1 [Example H-71, (3R)-3-Benzoylamino-N-methyl-N-(1-pyridin-4-yl-piperidin-4-yl)-2,3-dihydro-1H-indene-5-carboxylic acid amide]
99	104	CN(C(=O)c1ccc2c(c1)[C@H](NS(=O)(=O)c1ccc(F)cc1)CC2)C1CCN(c2ccncc2)CC1 [Example H-72, (3R)-3-[[(4-Fluorophenyl)sulfonyl]amino]-N-methyl-N-(1-pyridin-4-yl-piperidin-4-yl)-2,3-dihydro-1H-indene-5-carboxylic acid amide]
100	104	CN(C(=O)c1ccc2c(c1)[C@H](NC(=O)c1cccc3ccccc13)CC2)C1CCN(c2ccncc2)CC1 [Example H-73, N-[(1R)-6-[Methyl-(1-pyridin-4-yl-piperidin-4-yl)-carbamoyl]-2,3-dihydro-1H-Inden-1-yl]-naphthalene-1-carboxylic acid amide]
100	104	CN(C(=O)c1ccc2c(c1)[C@H](NS(=O)(=O)c1ccccc1)CC2)C1CCN(c2ccncc2)CC1 [Example H-74, (3R)-3-(Benzenesulfonamido)-N-methyl-N-(1-pyridin-4-yl-piperidin-4-yl)-2,3-dihydro-1H-indene-5-carboxylic acid amide]
100	105	CN(C(=O)c1ccc2c(c1)[C@H](NC(=O)c1ccc(F)cc1)CC2)C1CCN(c2ccncc2)CC1 [Example H-75, (3R)-3-[(4-Fluoro-benzoyl)amino]-N-methyl-N-(1-pyridin-4-yl-piperidin-4-yl)-2,3-dihydro-1H-indene-5-carboxylic acid amide]
95	107	CN(C(=O)c1ccc2c(c1)[C@H](NC(=O)C1CCOCC1)CC2)C1CCN(c2ccncc2)CC1 [Example H-76, N-[(1R)-6-[Methyl-(1-pyridin-4-yl-piperidin-4-yl)-carbamoyl]-2,3-dihydro-1H-yl)-1-2,3-tetrahydro-pyran-4-carboxylic acid amide]
100	104	CCN(C(=O)c1ccc2c(c1)[C@H](NC(=O)c1ccccc1Cl)CC2)C1CCN(c2ccncc2)CC1 [Example H-77, (3R)-3-[(2-Chloro-benzoyl)amino]-N-ethyl-N-(1-pyridin-4-yl-piperidin-4-yl)-2,3-dihydro-1H-indene-5-carboxylic acid amide]
31	85	CN(C(=O)c1ccc2c(c1)[C@H](NC(=O)c1ccccc1Cl)CC2)C1CCN(c2ccc(F)cc2)CC1 [Example H-78, (3R)-3-[(2-Chloro-benzoyl)amino]-N-[1-(4-fluorophenyl)-pipendin-4-yl]-N-methyl-2,3-dihydro-1H-indene-5-carboxylic acid amide]
100	110	CCN(C(=O)c1ccc2c(c1)[C@H](NC(=O)c1ccccc1Cl)CC2)C1CCN(c2ccnc(C)c2)CC1 [Example H-79, (3R)-3-[(2-Chloro-benzoyl)amino]-N-ethyl-N-[1-(2-methyl-pyridin-4-yl)-piperidin-4-yl]-2,3-dihydro-1H-indene-5-carboxylic acid amide]
100	110	CN(C(=O)c1cc(F)c2c(c1)[C@H](NC(=O)c1ccccc1Cl)CCO2)C1CCN(c2ccncc2)CC1 [Example H-80, (4R)-4-[(2-Chloro-benzoyl)amino]-8-fluoro-N-methyl-N-(1-pyridin-4-yl-piperidin-4-yl)-3,4-dihydro-2H-chromene-6-carboxylic acid amide]
95	109	Cc1cc(N2CCC(N(C)C(=O)c3cc(F)c4c(c3)[C@H](NC(=O)c3ccccc3Cl)CCO4)CC2)nc(C)n1 [Example H-81, (4R)-4-[(2-Chloro-benzoyl)amino]-N-[1-(2,6-dimethyl-pyrimidin-4-yl)-piperidin-4-yl]-8-fluoro-N-methyl-3,4-dihydro-2H-chromene-6-carboxylic acid amide]
100	112	CN(C(=O)c1ccc2c(c1)[C@H](NC(=O)C1CCc3ccccc31)CC2)C1CCN(c2ccncc2)CC1 (stereo partly drawn) [Example H-82, (3R)-3-(2,3-Dihydro-1H-inden-1-carbonylamino)-N-methyl-N-(1-pyridin-4-yl-piperidin-4-yl)-2,3-dihydro-1H-indene-5-carboxylic acid amide]
100	111	CN(C(=O)c1ccc2c(c1)[C@H](NC(=O)c1cncc3ccccc13)CC2)C1CCN(c2ccncc2)CC1 [Example H-83, N-[(1R)-6-[Methyl-(1-pyridin-4-yl-piperidin-4-yl)-carbamoyl]-2,3-dihydro-1H-inden-1-yl]-isoquinoline-4-carboxylic acid amide]
100	103	CN(C(=O)c1ccc2c(c1)[C@H](NC(=O)C1CCOc3ccccc31)CC2)C1CCN(c2ccncc2)CC1 (stereo partly drawn) [Example H-84, N-[(1R)-6-[Methyl-(1-pyridin-4-yl-piperidin-4-yl)-carbamoyl]-2,3-dihydro-1H-inden-1-yl]-3,4-dihydro-2H-chromene-4-carboxylic acid amide]
100	103	Cc1cc(N2CCC(N(C)C(=O)c3ccc4c(c3)[C@H](NC(=O)CC(C)C)CC4)CC2)ccn1 [Example H-85, (3R)-N-Methyl-3-(3-methyl-butanoylamino)-N-[1-(2-methyl-pyridin-4-yl)-piperidin-4-yl]-2,3-dihydro-1H-indene-5-carboxylic acid amide]
100	98	Cc1cc(N2CCC(N(C)C(=O)c3ccc4c(c3)[C@H](NC(=O)CC(C)C)CC4)CC2)nc(C)n1 [Example H-86, (3R)-N-[1-(2,6-Dimethyl-pyrimidin-4-yl)-piperidin-4-yl]-N-methyl-3-(3-methyl-butanoylamino)-2,3-dihydro-1H-indene-5-carboxylic acid amide]
39	104	CN(C(=O)c1cc(F)c2c(c1)[C@H](N1Cc3cccc(Cl)c3C1=O)CCO2)C1CCN(c2ccncc2)CC1 [Example H-87, (4R)-4-(4-Chloro-3-oxo-1,2-dihydro-isoindol-2-yl)-8-fluoro-N-methyl-N-(1-pyridin-4-yl-piperidin-4-yl)-3,4-dihydro-2H-chromene-6-carboxylic acid amide]
96	104	Cc1cc(N2CCC(N(C)C(=O)c3ccc4c(c3)[C@H](NC(=O)C3CCOCC3)CC4)CC2)ccn1 [Example H-88, N-[(1R)-6-[Methyl-[1-(2-methyl-pyridin-4-yl)-piperidin-4-yl]-carbamoyl]-2,3-dihydro-1H-inden-1-yl]-tetrahydro-pyran-4-carboxylic acid amide]

From US8680159B2, “Bradykinin 1 receptor modulating compounds” (Gruenenthal GmbH, priority 2010, dated 2014)
